Measured values: ChEMBL document CHEMBL5532651, “HDAC specificity and kinase off-targeting by purine-benzohydroxamate anti-hematological tumor agents” (Eur J Med Chem, 2024)
The source made the active and inactive calls. No cut-off for these calls is given here.

Legend:
HCT-116 = assay: cells; details: Homo sapiens
Jurkat [1] = assay: cells; details: Homo sapiens
MCF7 = assay: cells; format: functional, cell-based; details: Homo sapiens
NAMALVA [2] = assay: cells; details: Homo sapiens
[3] = target: T1, Protein deacetylase HDAC6 (Homo sapiens, UniProt Q9UBN7); assay: Inhibition of HDAC6 (unknown origin)
T1 sequence (Q9UBN7 whole entry): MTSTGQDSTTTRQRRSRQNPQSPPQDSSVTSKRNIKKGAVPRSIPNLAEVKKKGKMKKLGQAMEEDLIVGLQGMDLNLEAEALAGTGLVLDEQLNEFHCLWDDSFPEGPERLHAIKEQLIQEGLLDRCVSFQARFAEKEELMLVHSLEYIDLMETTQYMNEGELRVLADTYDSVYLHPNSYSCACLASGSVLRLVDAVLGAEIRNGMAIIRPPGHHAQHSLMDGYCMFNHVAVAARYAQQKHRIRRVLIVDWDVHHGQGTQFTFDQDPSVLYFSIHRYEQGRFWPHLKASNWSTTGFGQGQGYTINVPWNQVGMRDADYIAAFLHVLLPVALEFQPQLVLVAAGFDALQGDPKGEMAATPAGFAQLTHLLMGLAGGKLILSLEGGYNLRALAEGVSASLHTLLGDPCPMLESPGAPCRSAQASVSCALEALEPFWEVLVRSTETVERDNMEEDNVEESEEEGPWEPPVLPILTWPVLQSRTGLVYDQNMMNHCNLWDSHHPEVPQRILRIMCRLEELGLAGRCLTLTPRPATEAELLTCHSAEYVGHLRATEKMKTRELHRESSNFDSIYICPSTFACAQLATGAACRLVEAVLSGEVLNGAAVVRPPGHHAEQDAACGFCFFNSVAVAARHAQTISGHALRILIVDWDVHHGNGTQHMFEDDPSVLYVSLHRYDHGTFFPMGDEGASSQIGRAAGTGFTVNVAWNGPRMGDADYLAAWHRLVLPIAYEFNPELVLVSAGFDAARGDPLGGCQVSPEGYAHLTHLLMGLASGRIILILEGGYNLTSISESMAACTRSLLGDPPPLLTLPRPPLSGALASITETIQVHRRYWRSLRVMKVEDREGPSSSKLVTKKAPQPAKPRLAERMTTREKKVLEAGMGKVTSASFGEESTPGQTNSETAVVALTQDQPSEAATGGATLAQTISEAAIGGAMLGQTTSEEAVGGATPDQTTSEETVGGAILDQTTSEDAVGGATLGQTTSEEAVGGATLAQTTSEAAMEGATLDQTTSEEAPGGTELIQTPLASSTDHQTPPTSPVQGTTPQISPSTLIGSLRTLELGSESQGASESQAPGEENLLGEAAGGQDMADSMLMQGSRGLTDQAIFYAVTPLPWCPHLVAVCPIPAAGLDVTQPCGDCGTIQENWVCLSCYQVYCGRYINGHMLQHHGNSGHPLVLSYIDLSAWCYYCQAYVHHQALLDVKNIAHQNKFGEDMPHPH

CYP2C9 = CYP2C9 (Homo sapiens, UniProt P11712); assay: Inhibition of CYP2C9 in liver microsomes (unknown origin) at 10 uM incubated for 10 mins relative to control; format: ADME, Microsome
Sequence of CYP2C9 (P11712 whole entry): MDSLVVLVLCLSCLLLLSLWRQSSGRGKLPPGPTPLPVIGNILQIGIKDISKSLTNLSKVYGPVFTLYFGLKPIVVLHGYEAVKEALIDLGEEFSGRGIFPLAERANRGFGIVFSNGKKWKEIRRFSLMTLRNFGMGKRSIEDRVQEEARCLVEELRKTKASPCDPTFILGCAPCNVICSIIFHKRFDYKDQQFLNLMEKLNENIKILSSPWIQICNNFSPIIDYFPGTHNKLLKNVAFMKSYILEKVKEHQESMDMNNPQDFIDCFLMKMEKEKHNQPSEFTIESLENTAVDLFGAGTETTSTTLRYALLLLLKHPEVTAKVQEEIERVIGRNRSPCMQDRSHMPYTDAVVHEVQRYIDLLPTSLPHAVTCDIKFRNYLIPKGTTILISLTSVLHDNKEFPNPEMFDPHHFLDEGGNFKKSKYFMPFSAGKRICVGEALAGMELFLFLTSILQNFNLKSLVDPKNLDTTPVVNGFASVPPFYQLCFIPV

[4] = target: T2, Protein deacetylase HDAC6 (Homo sapiens) (UniProt Q9UBN7); assay: Inhibition of HDAC6 in human NAMALVA cells assessed as increase in acetyl-histone H3 level at IC50 incubated for 48 hrs by Western blot analysis; format: cell-based
T2 sequence (whole entry): T1 sequence (Q9UBN7 whole entry)

[5] = target: T2, Protein deacetylase HDAC6 (Homo sapiens); assay: Inhibition of HDAC6 in human U-937 cells assessed as increase in acetyl-alpha-tubulin level at IC50 incubated for 48 hrs by Western blot analysis; format: cell-based
[6] = target: T2, Protein deacetylase HDAC6 (Homo sapiens); assay: Inhibition of HDAC6 in human Jurkat cells assessed as increase in acetyl-histone H3 level at IC50 incubated for 48 hrs by Western blot analysis; format: cell-based
NAMALVA [7] = assay: Cytotoxicity against human NAMALVA cells assessed as cell growth inhibition at 0.04 to 17.4 uM by MTT assay; format: functional, cell-based; details: dose 0.04-17.4 µM, time lower 24.0 hrs, time upper […], TDE = time-dependent effect
U-937 [8] = assay: Inhibition of cell proliferation of human U-937 cells assessed as reduction in Ki-67 expression at IC50 measured after 48 hrs by flow cytometry; format: functional, cell-based
[9] = Stability in mouse liver microsome assessed as intrinsic clearance at 1 uM measured for 60 mins by LC-MS/MS analysis; format: ADME; details: liver microsomes, read-out: CLH
Jurkat [10] = assay: Inhibition of cell proliferation of human Jurkat cells assessed as reduction in Ki-67 expression at IC50 measured after 48 hrs by flow cytometry; format: functional, cell-based
NAMALVA [11] = assay: Induction of apoptosis in human NAMALVA cells at IC50 measured after 48 hrs by flow cytometry; format: functional, cell-based
CYP1A2 [12] = target: T3, CYP1A2 (Homo sapiens, UniProt P05177); assay: Inhibition of CYP1A2 in liver microsomes (unknown origin) at 10 uM incubated for 10 mins relative to control; format: ADME, Microsome
T3 sequence (P05177 whole entry): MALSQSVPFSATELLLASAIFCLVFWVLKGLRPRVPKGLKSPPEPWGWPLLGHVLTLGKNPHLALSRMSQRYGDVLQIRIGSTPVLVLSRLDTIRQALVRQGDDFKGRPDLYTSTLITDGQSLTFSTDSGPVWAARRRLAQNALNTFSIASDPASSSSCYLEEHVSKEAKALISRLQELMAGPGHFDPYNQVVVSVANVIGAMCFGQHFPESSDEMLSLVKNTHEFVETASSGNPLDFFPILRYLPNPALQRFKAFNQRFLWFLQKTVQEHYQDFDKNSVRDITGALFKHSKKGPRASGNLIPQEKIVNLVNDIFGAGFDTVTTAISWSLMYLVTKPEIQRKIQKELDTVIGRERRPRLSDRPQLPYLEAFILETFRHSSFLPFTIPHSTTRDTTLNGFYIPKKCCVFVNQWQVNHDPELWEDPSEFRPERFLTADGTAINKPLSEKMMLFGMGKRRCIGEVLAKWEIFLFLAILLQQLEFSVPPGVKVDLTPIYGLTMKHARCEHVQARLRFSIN

[13] = Stability in human liver microsome assessed as intrinsic clearance at 1 uM measured for 60 mins by LC-MS/MS analysis; format: ADME; details: liver microsomes, read-out: CLH
[14] = Stability in mouse liver microsome assessed as half life at 1 uM measured for 60 mins by LC-MS/MS analysis; format: ADME; details: liver microsomes
Jurkat [15] = assay: Induction of apoptosis in human Jurkat cells at IC50 measured after 48 hrs by flow cytometry; format: functional, cell-based
U-937 [16] = assay: Cytotoxicity against human U-937 cells assessed as cell growth inhibition incubated for 24 to 72 hrs by MTT assay; format: functional, cell-based; details: time lower 24.0 hrs, time upper […]
[17] = target: T2, Protein deacetylase HDAC6 (Homo sapiens); assay: Inhibition of HDAC6 in human U-937 cells assessed as increase in acetyl-histone H3 level at IC50 incubated for 48 hrs by Western blot analysis; format: cell-based
U-937 [18] = assay: Induction of apoptosis in human U-937 cells at IC50 measured after 48 hrs by flow cytometry; format: functional, cell-based
NAMALVA [19] = assay: Inhibition of cell proliferation of human NAMALVA cells assessed as reduction in Ki-67 expression at IC50 measured after 48 hrs by flow cytometry; format: functional, cell-based
[20] = target: T2, Protein deacetylase HDAC6 (Homo sapiens); assay: Inhibition of HDAC6 in human NAMALVA cells assessed as increase in acetyl-alpha-tubulin level at IC50 incubated for 48 hrs by Western blot analysis; format: cell-based
U-937 [21] = assay: Cytotoxicity against human U-937 cells assessed as cell growth inhibition at 1.6 to 6.4 uM by MTT assay; format: functional, cell-based; details: dose 1.6-6.4 µM, time lower 24.0 hrs, time upper […], TDE = time-dependent effect
CYP2D6 = CYP2D6 (Homo sapiens, UniProt P10635); assay: Inhibition of CYP2D6 in liver microsomes (unknown origin) at 10 uM incubated for 10 mins relative to control; format: ADME, Microsome
Sequence of CYP2D6 (P10635 whole entry): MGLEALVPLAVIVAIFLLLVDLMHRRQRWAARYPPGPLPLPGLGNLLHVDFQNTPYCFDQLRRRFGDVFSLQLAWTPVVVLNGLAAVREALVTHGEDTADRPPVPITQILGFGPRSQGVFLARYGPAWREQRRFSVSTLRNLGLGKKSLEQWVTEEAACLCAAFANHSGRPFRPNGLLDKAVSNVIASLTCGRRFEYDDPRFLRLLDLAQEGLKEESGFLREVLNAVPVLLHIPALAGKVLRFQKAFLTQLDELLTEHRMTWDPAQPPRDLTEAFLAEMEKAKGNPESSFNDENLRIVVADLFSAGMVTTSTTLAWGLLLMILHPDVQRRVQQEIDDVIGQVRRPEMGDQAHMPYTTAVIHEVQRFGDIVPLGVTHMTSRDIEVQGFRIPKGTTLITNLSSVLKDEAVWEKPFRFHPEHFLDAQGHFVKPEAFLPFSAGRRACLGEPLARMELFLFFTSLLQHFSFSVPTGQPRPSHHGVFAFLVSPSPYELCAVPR

[22] = target: T2, Protein deacetylase HDAC6 (Homo sapiens); assay: Inhibition of HDAC6 in human Jurkat cells assessed as increase in acetyl-alpha-tubulin level at IC50 incubated for 48 hrs by Western blot analysis; format: cell-based
[23] = target: T1, Protein deacetylase HDAC6; assay: Inhibition of full-length recombinant human HDAC6 expressed in baculovirus infected Sf9 cells using RHKK(Ac)AMC as substrate preincubated for 5 to 10 mins followed by substrate addition measured after 2 hrs by fluorescence based assay
[24] = Stability in human liver microsome assessed as half life at 1 uM measured for 60 mins by LC-MS/MS analysis; format: ADME; details: liver microsomes
Jurkat [25] = assay: Cytotoxicity against human Jurkat cells assessed as cell growth inhibition at 0.03 to 1.8 uM by MTT assay; format: functional, cell-based; details: dose 0.03-1.8 µM, time lower 24.0 hrs, time upper […], TDE = time-dependent effect
CYP1A2 [26] = target: T3, CYP1A2; assay: Inhibition of CYP1A2 in liver microsomes (unknown origin) at 40 uM incubated for 10 mins relative to control; format: ADME, Microsome

## COc1ccc(Nc2ncnc3c2ncn3Cc2ccc(C(=O)NO)cc2)cc1OC
HCT-116
  IC50: 16.3 µM
Jurkat [1]
  IC50: 0.6 µM
MCF7
  IC50: > 50 µM
NAMALVA [2]
  IC50: 0.5 µM

## Cc1ccc(Nc2ncnc3c2ncn3Cc2ccc(C(=O)NO)cc2)cc1S(N)(=O)=O
HCT-116
  IC50: > 50 µM
Jurkat [1]
  IC50: > 50 µM
MCF7
  IC50: > 50 µM
NAMALVA [2]
  IC50: > 50 µM

## O=C(/C=C/c1cccc(S(=O)(=O)Nc2ccccc2)c1)NO [BELINOSTAT]
[3]
  IC50: 2.6 µM

## O=C(NO)c1ccc(Cn2cnc3c(Nc4ccc(Cl)c(C(F)(F)F)c4)ncnc32)cc1
HCT-116
  IC50: 2.9 µM
Jurkat [1]
  IC50: 0.25 µM
MCF7
  IC50: 13.2 µM
NAMALVA [2]
  IC50: 0.26 µM

## O=C(NO)c1ccc(Cn2cnc3c(Nc4ccc(Br)cc4F)ncnc32)cc1
CYP2C9
  inhibition at 10 min, 10 µM: 42%
HCT-116
  IC50: 21.7 µM
[4]
  inhibition: Active
Jurkat [1]
  IC50: 0.03 µM
[5]
  inhibition: Active
MCF7
  IC50: 21.7 µM
[6]
  inhibition: Active
NAMALVA [7]
  inhibition: Tde
U-937 [8]
  inhibition: Active
[9]
  microsomal CLint at 1 µM: 20 µL/min/mg
Jurkat [10]
  inhibition: Active
NAMALVA [11]
  Activity: Active
CYP1A2 [12]
  inhibition at 10 min, 10 µM: 47%
[13]
  microsomal CLint at 1 µM: < 6 µL/min/mg
[14]
  half-life at 1 µM: 35 min
Jurkat [15]
  Activity: Active
U-937 [16]
  inhibition: Dose-Dependent Effect
[17]
  inhibition: Active
U-937 [18]
  Activity: Active
NAMALVA [19]
  inhibition: Active
[20]
  inhibition: Active
U-937 [21]
  inhibition: Tde
CYP2D6
  inhibition at 10 min, 10 µM: 10%
[22]
  inhibition: Active
[23]
  IC50: 0.184 µM
[24]
  half-life at 1 µM: > 120 min
NAMALVA [2]
  IC50: 0.04 µM
Jurkat [25]
  inhibition: Tde

## O=C(NO)c1cccc(Cn2cnc3c(O)ncnc32)c1
HCT-116
  IC50: > 50 µM
Jurkat [1]
  IC50: > 50 µM
MCF7
  IC50: > 50 µM
NAMALVA [2]
  IC50: > 50 µM

## O=C(NO)c1ccc(Cn2cnc3c(Nc4ccccc4)ncnc32)cc1
HCT-116
  IC50: > 50 µM
Jurkat [1]
  IC50: 0.2 µM
MCF7
  IC50: > 50 µM
NAMALVA [2]
  IC50: 0.13 µM

## C=C[C@H]1C[N@@]2CC[C@H]1C[C@@H]2[C@@H](O)c1ccnc2ccc(OC)cc12 [QUINIDINE]
CYP2C9
  inhibition at 10 min, 10 µM: 10%
CYP1A2 [12]
  inhibition at 10 min, 10 µM: 10%
CYP2D6
  inhibition at 10 min, 10 µM: 86%

## CCN(CC)CCNC(=O)c1c(C)[nH]c(/C=C2\C(=O)Nc3ccc(F)cc32)c1C [SUNITINIB]
[9]
  microsomal CLint at 1 µM: 58 µL/min/mg
[13]
  microsomal CLint at 1 µM: 21 µL/min/mg
[14]
  half-life at 1 µM: 12 min
[24]
  half-life at 1 µM: 33 min

## O=C(NO)c1ccc(Nc2ncnc3[nH]cnc23)cc1
HCT-116
  IC50: > 50 µM
Jurkat [1]
  IC50: > 50 µM
MCF7
  IC50: > 50 µM
NAMALVA [2]
  IC50: > 50 µM

## O=C(NO)c1ccc(Cn2cnc3c(O)ncnc32)cc1
HCT-116
  IC50: > 50 µM
Jurkat [1]
  IC50: > 50 µM
MCF7
  IC50: > 50 µM
NAMALVA [2]
  IC50: > 50 µM

## Nc1ccc(S(=O)(=O)Nc2ccnn2-c2ccccc2)cc1 [SULFAPHENAZOLE]
CYP1A2 [12]
  inhibition at 10 min, 10 µM: 10%
CYP2D6
  inhibition at 10 min, 10 µM: 10%

## COC(=O)c1ccc(Cn2cnc3c(Nc4ccc(Cl)c(C(F)(F)F)c4)ncnc32)cc1
HCT-116
  IC50: > 50 µM
Jurkat [1]
  IC50: > 50 µM
MCF7
  IC50: > 50 µM
NAMALVA [2]
  IC50: > 50 µM

## Cc1nc2c([nH]1)c(=O)n(C)c(=O)n2Cc1ccco1 [FURAFYLLINE]
CYP2C9
  inhibition at 10 min, 10 µM: 10%
CYP1A2 [26]
  inhibition at 10 min, 40 µM: 78%
CYP2D6
  inhibition at 10 min, 10 µM: 10%

## COc1cc(Nc2ncnc3c2ncn3Cc2ccc(C(=O)NO)cc2)cc(OC)c1OC
HCT-116
  IC50: > 50 µM
MCF7
  IC50: > 50 µM
NAMALVA [2]
  IC50: 0.8 µM

## CC(=O)N1CCN(c2ccc(OCC3COC(Cn4ccnc4)(c4ccc(Cl)cc4Cl)O3)cc2)CC1 (stereo not drawn) [KETOCONAZOLE]
CYP2C9
  inhibition at 10 min, 10 µM: 10%
CYP1A2 [12]
  inhibition at 10 min, 10 µM: 10%
